Test system: guinea pig T lymphocytes
Assay: rosette test on guinea pig T lymphocytes in immunosuppressed guinea pigs
Assay type: in vivo
Protocol: The composition of the invention was also tested in vivo in various animal systems. Using the rosette test on guinea pig T lymphocytes, the state of cellular immunity under the influence of the composition according to the invention in combination with Oxoplatin, Campto, Taxol and Eloxatin was investigated. In each test, the improvement of the T lymphocyte state in immunosuppressed guinea pigs after administration of the composition according to the invention was tested. Prior to testing, the level of T lymphocytes in the guinea pigs was determined using the rosette test, and subsequently, the decrease in the amount of T lymphocytes caused by the immunosuppressant Azathioprin was determined. A second determination of the T lymphocytes was made seven days after application of Azathioprin. This was followed by subcutaneous application of the composition of the invention into the laboratory animals. The last determination of the T lymphocyte count in the guinea pigs was made 14 to 19 days after application of the composition according to the invention.

Compound	drop in production of rosettes following application of the cytostatic agent (guinea pigs, rosette test)	drop in production of rosettes following application of the cytostatic agent (guinea pig, in vivo)
CCc1c2c(nc3ccc(OC(=O)N4CCC(N5CCCCC5)CC4)cc13)-c1cc3c(c(=O)n1C2)COC(=O)[C@]3(O)CC [Campto]	23%	–
O=C1[O][Pt]2([NH][C@@H]3CCCC[C@H]3[NH]2)[O]C1=O [Eloxatin]	–	22%
N.N.[Cl-].[Cl-].[OH-].[OH-].[Pt+4] [Oxoplatin]	–	about 30%
CC(=O)O[C@H]1C(=O)[C@@]2(C)[C@H]([C@H](OC(=O)c3ccccc3)[C@]3(O)C[C@H](OC(=O)[C@H](O)[C@@H](NC(=O)c4ccccc4)c4ccccc4)C(C)=C1C3(C)C)[C@]1(OC(C)=O)CO[C@@H]1C[C@@H]2O [Taxol]	–	16%

— patent US20080220083A1, “Pharmaceutical Agent Comprising Blood Components <10 Kda And Their Use For Prophylaxis And Treatment Of Defects Of The Immune System” (priority 2004, published 2008)
